Among the data in patent US12351580B2, “NLRP3 modulators” (Innate Tumor Immunity, Inc., priority 2017, dated 2025) are EC50 values, retold here.

The structures appear in SMILES notation. pEC50: −log10 of the molar value.

One may read the pEC50 as −log10 of the EC50, conventionally taken in molar units. Read a low pEC50 as a large EC50.

For this assay, the target named is T1, TLR8 (Homo sapiens, UniProt Q9NR97).
T1 construct: host or cells: HEK-Blue cells (human HEK) co-expressing TLR8 and an NF-kB/AP1-inducible SEAP reporter
T1 sequence (Q9NR97 27-1041): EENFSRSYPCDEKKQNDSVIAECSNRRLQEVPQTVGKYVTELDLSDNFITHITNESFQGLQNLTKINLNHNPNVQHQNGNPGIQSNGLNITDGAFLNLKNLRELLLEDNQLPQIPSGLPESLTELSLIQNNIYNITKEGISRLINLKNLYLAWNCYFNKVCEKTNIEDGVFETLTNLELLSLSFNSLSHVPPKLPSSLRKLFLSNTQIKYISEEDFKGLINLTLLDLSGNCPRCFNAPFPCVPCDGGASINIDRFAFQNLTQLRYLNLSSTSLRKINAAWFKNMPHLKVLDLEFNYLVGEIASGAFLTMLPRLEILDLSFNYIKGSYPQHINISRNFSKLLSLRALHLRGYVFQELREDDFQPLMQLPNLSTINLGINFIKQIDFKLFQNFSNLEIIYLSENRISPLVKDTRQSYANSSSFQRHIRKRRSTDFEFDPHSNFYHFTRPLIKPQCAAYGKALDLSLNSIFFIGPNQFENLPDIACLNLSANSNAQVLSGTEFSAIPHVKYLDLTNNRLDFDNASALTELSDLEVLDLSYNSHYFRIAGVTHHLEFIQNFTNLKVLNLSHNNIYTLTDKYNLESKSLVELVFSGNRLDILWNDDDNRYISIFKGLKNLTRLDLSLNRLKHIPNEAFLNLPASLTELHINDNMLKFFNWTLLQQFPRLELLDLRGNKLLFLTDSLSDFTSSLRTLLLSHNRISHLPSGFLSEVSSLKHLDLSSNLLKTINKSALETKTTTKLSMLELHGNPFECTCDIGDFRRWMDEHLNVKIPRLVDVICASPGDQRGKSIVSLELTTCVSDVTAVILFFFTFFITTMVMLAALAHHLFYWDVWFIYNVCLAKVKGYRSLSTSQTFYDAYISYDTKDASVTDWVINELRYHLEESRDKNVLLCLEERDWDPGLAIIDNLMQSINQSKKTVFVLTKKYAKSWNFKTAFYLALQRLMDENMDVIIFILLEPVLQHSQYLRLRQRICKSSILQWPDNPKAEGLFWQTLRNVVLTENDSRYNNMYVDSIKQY
In words: In vitro human TLR8 binding reporter assay (HEK-Blue, NF-kB/AP1-inducible SEAP). The assay is classed as cell-based. The procedure, abridged: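 Reporter cells are plated at 15,000 per well and rested 24 h. Next day, test compounds or DMSO are dispensed, followed by 18 h incubation at 37 °C, 5% CO2.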
For orientation: In a reporter assay the amount or activity of a reporter protein is the signal.

`CCN(Cc1nc2c(N)nc3cc(-c4ccn(C)n4)ccc3c2[nH]1)C(=O)OC(C)(C)C` [Compound 393]: for the setting “activity range symbols”, the pEC50 is less than 4.00.

With `CCN(Cc1nc2c(N)nc3cc(-c4ccsc4)ccc3c2[nH]1)C(=O)OC(C)(C)C` [Compound 397], the pEC50 (activity range symbols) is less than 4.00.

For `CCNCc1nc2c(N)nc3cc(-n4cccn4)ccc3c2[nH]1` [Compound 398], for the setting “activity range symbols”, the pEC50 was less than 4.00.

In turn, `CCNCc1nc2c(N)nc3cc(-c4cccs4)ccc3c2[nH]1` [Compound 399] showed a pEC50 (activity range symbols) of less than 4.00.

With `CCNCc1nc2c(N)nc3cc(-c4ccsc4)ccc3c2[nH]1` [Compound 400], the pEC50 (activity range symbols) was less than 4.00.

`CNCc1nc2c(N)nc3cc(-c4cc[nH]n4)ccc3c2[nH]1` [Compound 401]: the pEC50 (activity range symbols) was less than 4.00.

In turn, `CNCc1nc2c(N)nc3cc(-n4cccn4)ccc3c2[nH]1` [Compound 402] gave a negative-log EC50 (pEC50) (activity range symbols) of less than 4.00.

`COc1ccc(Cn2c(CN3CCN(C)C3=O)nc3c(N)nc4cc(-c5cc[nH]n5)ccc4c32)cc1` [Compound 403] showed a pEC50 (activity range symbols) of less than 4.00.

`COc1ccc(Cn2c(CN3C(=O)OCC3COCc3ccccc3)nc3c(N)nc4cc(-c5cc[nH]n5)ccc4c32)cc1` (stereo not shown) [Compound 404]: where the note is “activity range symbols”, the pEC50 was less than 4.00.

Regarding `COC(=O)N(C)Cc1nc2c(N)nc3cc(-c4cc[nH]n4)ccc3c2[nH]1` [Compound 405], the pEC50 (activity range symbols) is less than 4.00.

`CCN(Cc1nc2c(N)nc3cc(-c4cc[nH]n4)ccc3c2[nH]1)C(=O)OC` [Compound 406] had a pEC50 (activity range symbols) of less than 4.00.

The compound `Nc1nc2cc(-c3cc[nH]n3)ccc2c2[nH]c(CN3C[C@@H](c4ccccc4)CC3=O)nc12` [Compound 407] showed a pEC50 (activity range symbols) of less than 4.00.

The compound `Nc1nc2cc(-c3cc[nH]n3)ccc2c2[nH]c(CN3C[C@H](c4ccccc4)CC3=O)nc12` [Compound 408] had a negative logarithm of the EC50 (pEC50) (activity range symbols) of less than 4.00.

`COc1ccc(Cn2c(CN3C(=O)OCC3c3ccccc3)nc3c(N)nc4cc(-c5cc[nH]n5)ccc4c32)cc1` (stereo not shown) [Compound 409]: for the setting “activity range symbols”, the pEC50 was less than 4.00.

As to `COc1ccc(Cn2c(Cn3cnccc3=O)nc3c(N)nc4cc(-c5cc[nH]n5)ccc4c32)cc1` [Compound 414], the pEC50 (activity range symbols) is less than 4.00.

Take `CCN(Cc1nc2c(N)nc3cc(-c4cc[nH]n4)ccc3c2[nH]1)C(=O)C1COC1` [Compound 417]: under “activity range symbols”, the pEC50 was less than 4.00.

Turning to `CCN(Cc1nc2c(N)nc3cc(-c4ccsc4)ccc3c2[nH]1)C(C)=O` [Compound 419, N-((4-Amino-7-(thiophen-3-yl)-1H-imidazo[4,5-c]quinolin-2-yl)methyl)-N-ethylacetamide], the pEC50 (activity range symbols) was less than 4.00.

In turn, `CCN(Cc1nc2c(N)nc3cc(-c4cc[nH]n4)ccc3c2n1C)C(=O)OC(C)(C)C` [Compound 420] showed a pEC50 (activity range symbols) of less than 4.00.

On to `CCN(Cc1nc2c(N)nc3cc(-c4ccc(C)cc4)ccc3c2[nH]1)C(C)=O` [Compound 422], for which the pEC50 (numeric bounds) is less than 5.00.

Take `Nc1nc2cc(-n3cccn3)ccc2c2[nH]c(CN3CCCCC3=O)nc12` [Compound 423]: the negative-log EC50 (pEC50) (activity range symbols) was less than 4.00.

On to `CCN(Cc1nc2c(N)nc3cc(-c4cncc(F)c4)ccc3c2[nH]1)C(C)=O` [Compound 427], for which, under “activity range symbols”, the pEC50 was less than 4.00.

`CCN(Cc1nc2c(N)nc3cc(Br)ccc3c2n1CC(C)C)C(C)=O` [Compound 430] gave a pEC50 (numeric bounds) of less than 5.00.

Regarding `CCN(Cc1nc2c(N)nc3cc(Br)ccc3c2n1CCCOC)C(C)=O` [Compound 431], the pEC50 (numeric bounds) is less than 5.00.

Under “numeric bounds”, `N#Cc1ccc(-c2ccc3c(c2)nc(N)c2nc(CN4CCCC4=O)[nH]c23)cc1` [Compound 434] had a negative-log EC50 (pEC50) of less than 4.52.

Consider `CCOC(=O)N(CC)Cc1nc2c(N)nc3cc(-c4cc[nH]n4)ccc3c2[nH]1` [Compound 436, Ethyl N-{[4-amino-7-(1H-pyrazol-3-yl)-1H-imidazo[4,5-c]quinolin-2-yl]methyl}-N-ethylcarbamate], for which, where the note is “numeric bounds”, the pEC50 was less than 4.30.

Consider `CCN(Cc1nc2c(N)nc3cc(-c4cc[nH]n4)ccc3c2[nH]1)C(=O)Cc1cccc(C)c1` [Compound 437, N-{[4-amino-7-(1H-pyrazol-3-yl)-1H-imidazo[4,5-c]quinolin-2-yl]methyl}-N-ethyl-2-(3-methylphenyl)acetamide], for which the pEC50 (activity range symbols) is less than 4.00.

Where the note is “activity range symbols”, `CCN(Cc1nc2c(N)nc3cc(-c4cc[nH]n4)ccc3c2[nH]1)C(=O)c1cccnc1` [Compound 438, N-{[4-amino-7-(1H-pyrazol-3-yl)-1H-imidazo[4,5-c]quinolin-2-yl]methyl}-N-ethylpyridine-3-carboxamide] gave a pEC50 of less than 4.00.

Under “activity range symbols”, `CCN(Cc1nc2c(N)nc3cc(-c4cc[nH]n4)ccc3c2[nH]1)C(=O)c1ccccn1` [Compound 439, N-{[4-amino-7-(1H-pyrazol-3-yl)-1H-imidazo[4,5-c]quinolin-2-yl]methyl}-N-ethylpyridine-2-carboxamide] showed a pEC50 of less than 4.00.

As for `CCN(Cc1nc2c(N)nc3cc(-c4cc[nH]n4)ccc3c2[nH]1)C(=O)CC(C)(C)O` [Compound 440, N-{[4-amino-7-(1H-pyrazol-3-yl)-1H-imidazo[4,5-c]quinolin-2-yl]methyl}-N-ethyl-3-hydroxy-3-methylbutanamide], the negative-log EC50 (pEC50) (activity range symbols) was less than 4.00.

Regarding `CCN(Cc1nc2c(N)nc3cc(-c4cc[nH]n4)ccc3c2[nH]1)C(=O)c1ccc(OC)cc1` [Compound 441, N-{[4-amino-7-(1H-pyrazol-3-yl)-1H-imidazo[4,5-c]quinolin-2-yl]methyl}-N-ethyl-4-methoxybenzamide], the pEC50 (numeric bounds) is less than 4.21.

The compound `CCN(Cc1nc2c(N)nc3cc(-c4cc[nH]n4)ccc3c2[nH]1)C(=O)c1cnccn1` [Compound 442, N-{[4-amino-7-(1H-pyrazol-3-yl)-1H-imidazo[4,5-c]quinolin-2-yl]methyl}-N-ethylpyrazine-2-carboxamide] gave a pEC50 (activity range symbols) of less than 4.00.

In the case of `CCN(Cc1nc2c(N)nc3cc(-c4cc[nH]n4)ccc3c2[nH]1)C(=O)Cc1ccccc1` [Compound 443, N-{[4-amino-7-(1H-pyrazol-3-yl)-1H-imidazo[4,5-c]quinolin-2-yl]methyl}-N-ethyl-2-phenylacetamide], where the note is “numeric bounds”, the negative-log EC50 (pEC50) was less than 4.21.

`CCN(Cc1nc2c(N)nc3cc(-c4cc[nH]n4)ccc3c2[nH]1)C(=O)CCCc1ccccc1` [Compound 444, N-{[4-amino-7-(1H-pyrazol-3-yl)-1H-imidazo[4,5-c]quinolin-2-yl]methyl}-N-ethyl-4-phenylbutanamide] had a pEC50 (activity range symbols) of 4.70 to 6.00.

Consider `CCN(Cc1nc2c(N)nc3cc(-c4cc[nH]n4)ccc3c2[nH]1)C(=O)CCC(C)C` [Compound 445, N-{[4-amino-7-(1H-pyrazol-3-yl)-1H-imidazo[4,5-c]quinolin-2-yl]methyl}-N-ethyl-4-methylpentanamide], for which the pEC50 (numeric bounds) was less than 4.21.

As to `CCN(Cc1nc2c(N)nc3cc(-c4cc[nH]n4)ccc3c2[nH]1)C(=O)c1cccn1C` [Compound 446, N-{[4-amino-7-(1H-pyrazol-3-yl)-1H-imidazo[4,5-c]quinolin-2-yl]methyl}-N-ethyl-1-methyl-1H-pyrrole-2-carboxamide], the negative logarithm of the EC50 (pEC50) (activity range symbols) is less than 4.00.

In turn, `CCN(Cc1nc2c(N)nc3cc(-c4cc[nH]n4)ccc3c2[nH]1)C(=O)CCc1ccccc1` [Compound 447, N-{[4-amino-7-(1H-pyrazol-3-yl)-1H-imidazo[4,5-c]quinolin-2-yl]methyl}-N-ethyl-3-phenylpropanamide] gave a pEC50 (activity range symbols) of 4.70 to 6.00.

Under “activity range symbols”, `CCN(Cc1nc2c(N)nc3cc(-c4cc[nH]n4)ccc3c2[nH]1)C(=O)c1ccccc1Cl` [Compound 449, N-{[4-amino-7-(1H-pyrazol-3-yl)-1H-imidazo[4,5-c]quinolin-2-yl]methyl}-2-chloro-N-ethylbenzamide] had a pEC50 of 4.00 to 4.70.

Take `CCN(Cc1nc2c(N)nc3cc(-c4cc[nH]n4)ccc3c2[nH]1)C(=O)c1ccncc1` [Compound 450, N-{[4-amino-7-(1H-pyrazol-3-yl)-1H-imidazo[4,5-c]quinolin-2-yl]methyl}-N-ethylpyridine-4-carboxamide]: the pEC50 (activity range symbols) is less than 4.00.

Take `CCN(Cc1nc2c(N)nc3cc(-c4cc[nH]n4)ccc3c2[nH]1)C(=O)c1cn(C)c2ccccc12` [Compound 451, N-{[4-amino-7-(1H-pyrazol-3-yl)-1H-imidazo[4,5-c]quinolin-2-yl]methyl}-N-ethyl-1-methyl-1H-indole-3-carboxamide]: the negative logarithm of the EC50 (pEC50) (activity range symbols) was 4.00 to 4.70.

`CCN(Cc1nc2c(N)nc3cc(-c4cc[nH]n4)ccc3c2[nH]1)C(=O)c1ccc(Cl)cc1` [Compound 452, N-{[4-amino-7-(1H-pyrazol-3-yl)-1H-imidazo[4,5-c]quinolin-2-yl]methyl}-4-chloro-N-ethylbenzamide] gave a pEC50 (numeric bounds) of less than 4.21.
